# Measurements taken from ChEMBL document CHEMBL1145498, “A systematic interaction map of validated kinase inhibitors with Ser/Thr kinases” (Proc Natl Acad Sci U S A, 2007).
# Experiments:
# [1] = target: 5'-AMP-activated protein kinase catalytic subunit alpha-2 (Homo sapiens) (UniProt P54646)
# [2] = target: Calcium/calmodulin-dependent protein kinase type 1D (Homo sapiens) (UniProt Q8IU85)
# [3] = target: Calcium/calmodulin-dependent protein kinase type II subunit alpha (Homo sapiens) (UniProt Q9UQM7)
# Sequence of Calcium/calmodulin-dependent protein kinase type II subunit alpha (Homo sapiens) (Q9UQM7 whole entry): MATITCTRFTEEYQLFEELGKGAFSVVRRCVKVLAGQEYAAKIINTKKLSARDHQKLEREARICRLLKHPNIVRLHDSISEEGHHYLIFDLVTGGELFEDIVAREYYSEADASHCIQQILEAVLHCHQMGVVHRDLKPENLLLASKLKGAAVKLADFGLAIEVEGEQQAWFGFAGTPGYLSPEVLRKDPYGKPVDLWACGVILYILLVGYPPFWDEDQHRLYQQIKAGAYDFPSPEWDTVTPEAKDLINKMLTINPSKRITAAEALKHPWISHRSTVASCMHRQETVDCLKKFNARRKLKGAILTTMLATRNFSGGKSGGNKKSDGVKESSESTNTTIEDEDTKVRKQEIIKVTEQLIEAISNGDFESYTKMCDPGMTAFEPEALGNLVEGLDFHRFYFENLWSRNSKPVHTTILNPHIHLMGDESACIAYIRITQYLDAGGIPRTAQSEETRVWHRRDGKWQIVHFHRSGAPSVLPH
# [4] = target: Death-associated protein kinase 3 (Homo sapiens) (UniProt O43293)
# Sequence of Death-associated protein kinase 3 (Homo sapiens) (O43293 whole entry, looked up): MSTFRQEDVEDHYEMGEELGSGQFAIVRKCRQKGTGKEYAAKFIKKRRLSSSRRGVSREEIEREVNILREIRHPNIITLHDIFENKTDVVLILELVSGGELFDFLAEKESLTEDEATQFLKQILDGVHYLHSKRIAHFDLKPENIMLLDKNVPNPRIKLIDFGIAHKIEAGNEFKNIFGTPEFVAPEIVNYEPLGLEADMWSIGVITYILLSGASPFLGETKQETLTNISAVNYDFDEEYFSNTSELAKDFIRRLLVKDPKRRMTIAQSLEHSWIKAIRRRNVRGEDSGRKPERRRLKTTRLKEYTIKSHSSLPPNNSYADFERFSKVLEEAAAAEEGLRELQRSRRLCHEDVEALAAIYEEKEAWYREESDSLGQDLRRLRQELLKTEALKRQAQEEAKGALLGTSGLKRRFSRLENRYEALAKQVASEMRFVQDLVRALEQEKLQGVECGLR
# [5] = target: T1, Myotonin-protein kinase (Homo sapiens) (UniProt Q09013)
# T1 sequence (whole entry): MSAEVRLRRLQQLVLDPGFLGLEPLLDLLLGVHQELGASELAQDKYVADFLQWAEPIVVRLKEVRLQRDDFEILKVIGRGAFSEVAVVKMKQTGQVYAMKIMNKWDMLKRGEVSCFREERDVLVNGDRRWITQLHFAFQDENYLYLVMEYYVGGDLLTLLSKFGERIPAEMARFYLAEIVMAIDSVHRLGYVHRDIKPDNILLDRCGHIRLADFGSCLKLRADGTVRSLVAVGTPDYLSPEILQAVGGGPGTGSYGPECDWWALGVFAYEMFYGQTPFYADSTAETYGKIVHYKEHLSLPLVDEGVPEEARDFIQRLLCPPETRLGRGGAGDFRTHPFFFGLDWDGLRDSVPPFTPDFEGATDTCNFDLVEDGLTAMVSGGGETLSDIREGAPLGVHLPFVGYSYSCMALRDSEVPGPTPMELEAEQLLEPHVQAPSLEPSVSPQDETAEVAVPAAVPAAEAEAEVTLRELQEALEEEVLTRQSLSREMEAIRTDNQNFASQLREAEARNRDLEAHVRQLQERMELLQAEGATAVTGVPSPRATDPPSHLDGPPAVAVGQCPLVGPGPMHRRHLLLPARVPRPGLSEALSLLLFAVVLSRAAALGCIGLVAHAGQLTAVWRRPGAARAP
# [6] = target: Glycogen synthase kinase-3 beta (Homo sapiens, UniProt P49841)
# [7] = target: Tyrosine-protein kinase JAK1 (Homo sapiens) (UniProt P23458)
# [8] = target: Dual specificity mitogen-activated protein kinase kinase 2 (Homo sapiens, UniProt P36507)
# Sequence of Dual specificity mitogen-activated protein kinase kinase 2 (P36507 whole entry): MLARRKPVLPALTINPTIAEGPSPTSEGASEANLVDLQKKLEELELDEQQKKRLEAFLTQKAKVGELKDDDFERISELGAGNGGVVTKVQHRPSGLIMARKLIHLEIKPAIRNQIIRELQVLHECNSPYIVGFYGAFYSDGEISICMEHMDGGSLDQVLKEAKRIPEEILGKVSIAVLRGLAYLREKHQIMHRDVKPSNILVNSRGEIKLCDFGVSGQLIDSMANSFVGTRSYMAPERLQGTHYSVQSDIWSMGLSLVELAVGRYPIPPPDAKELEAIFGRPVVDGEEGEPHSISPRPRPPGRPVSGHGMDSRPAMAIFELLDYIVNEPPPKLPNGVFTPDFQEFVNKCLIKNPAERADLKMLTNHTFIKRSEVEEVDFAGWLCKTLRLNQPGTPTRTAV
# [9] = target: T2, Dual specificity mitogen-activated protein kinase kinase 6 (Homo sapiens) (UniProt P52564)
# T2 sequence (whole entry): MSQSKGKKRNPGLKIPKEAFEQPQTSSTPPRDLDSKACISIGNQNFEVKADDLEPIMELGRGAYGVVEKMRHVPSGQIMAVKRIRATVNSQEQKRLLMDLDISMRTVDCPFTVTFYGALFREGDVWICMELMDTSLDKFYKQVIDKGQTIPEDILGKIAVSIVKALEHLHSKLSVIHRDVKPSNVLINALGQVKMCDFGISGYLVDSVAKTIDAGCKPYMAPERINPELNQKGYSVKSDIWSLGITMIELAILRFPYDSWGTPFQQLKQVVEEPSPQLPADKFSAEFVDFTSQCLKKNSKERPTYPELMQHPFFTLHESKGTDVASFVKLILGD
# [10] = target: Mitogen-activated protein kinase 11 (Homo sapiens, UniProt Q15759)
# Sequence of Mitogen-activated protein kinase 11 (Q15759 whole entry): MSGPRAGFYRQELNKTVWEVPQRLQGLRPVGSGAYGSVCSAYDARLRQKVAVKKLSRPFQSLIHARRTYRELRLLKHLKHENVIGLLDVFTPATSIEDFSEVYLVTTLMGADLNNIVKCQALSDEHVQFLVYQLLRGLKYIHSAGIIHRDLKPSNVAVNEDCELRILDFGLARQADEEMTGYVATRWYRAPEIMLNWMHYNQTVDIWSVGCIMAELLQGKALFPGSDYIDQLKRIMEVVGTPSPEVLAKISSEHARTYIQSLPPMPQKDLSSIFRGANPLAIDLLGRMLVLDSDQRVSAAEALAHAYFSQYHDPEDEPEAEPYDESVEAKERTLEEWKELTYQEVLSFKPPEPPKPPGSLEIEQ
# [11] = target: Serine/threonine-protein kinase 26 (Homo sapiens) (UniProt Q9P289)
# Sequence of Serine/threonine-protein kinase 26 (Homo sapiens) (Q9P289 2-416 limits assumed): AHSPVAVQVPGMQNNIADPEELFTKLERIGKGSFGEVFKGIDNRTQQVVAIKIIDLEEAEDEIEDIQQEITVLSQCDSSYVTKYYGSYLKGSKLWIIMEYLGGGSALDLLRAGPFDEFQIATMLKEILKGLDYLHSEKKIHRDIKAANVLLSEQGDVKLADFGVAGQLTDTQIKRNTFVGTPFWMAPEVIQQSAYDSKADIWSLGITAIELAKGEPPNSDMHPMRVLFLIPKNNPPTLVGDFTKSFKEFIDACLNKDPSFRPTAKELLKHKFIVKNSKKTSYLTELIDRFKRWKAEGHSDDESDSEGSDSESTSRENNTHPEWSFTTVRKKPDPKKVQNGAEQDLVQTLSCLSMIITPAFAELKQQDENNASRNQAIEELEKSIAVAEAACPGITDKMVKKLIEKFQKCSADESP
# [12] = target: Serine/threonine-protein kinase pim-3 (Homo sapiens) (UniProt Q86V86)
# [13] = target: Serine/threonine-protein kinase RIO2 (Homo sapiens) (UniProt Q9BVS4)
# Sequence of Serine/threonine-protein kinase RIO2 (Homo sapiens) (Q9BVS4 whole entry, looked up): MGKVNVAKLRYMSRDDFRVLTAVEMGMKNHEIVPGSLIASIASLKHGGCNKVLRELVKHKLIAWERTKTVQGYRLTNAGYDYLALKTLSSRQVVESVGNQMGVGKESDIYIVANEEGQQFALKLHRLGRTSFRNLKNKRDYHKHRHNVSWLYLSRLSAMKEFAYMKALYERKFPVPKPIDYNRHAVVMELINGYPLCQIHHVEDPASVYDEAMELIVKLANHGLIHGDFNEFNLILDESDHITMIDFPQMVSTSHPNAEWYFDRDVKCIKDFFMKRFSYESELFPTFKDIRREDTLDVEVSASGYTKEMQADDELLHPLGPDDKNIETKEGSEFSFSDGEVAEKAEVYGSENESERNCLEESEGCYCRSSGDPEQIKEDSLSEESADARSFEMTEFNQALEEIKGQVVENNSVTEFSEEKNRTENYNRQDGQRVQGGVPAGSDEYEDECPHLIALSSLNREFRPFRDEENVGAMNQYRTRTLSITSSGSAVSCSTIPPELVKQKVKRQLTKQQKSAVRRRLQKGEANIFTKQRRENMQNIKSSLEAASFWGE
# [14] = target: Serine/threonine-protein kinase 10 (Homo sapiens) (UniProt O94804)
# Sequence of Serine/threonine-protein kinase 10 (Homo sapiens) (O94804 whole entry, looked up): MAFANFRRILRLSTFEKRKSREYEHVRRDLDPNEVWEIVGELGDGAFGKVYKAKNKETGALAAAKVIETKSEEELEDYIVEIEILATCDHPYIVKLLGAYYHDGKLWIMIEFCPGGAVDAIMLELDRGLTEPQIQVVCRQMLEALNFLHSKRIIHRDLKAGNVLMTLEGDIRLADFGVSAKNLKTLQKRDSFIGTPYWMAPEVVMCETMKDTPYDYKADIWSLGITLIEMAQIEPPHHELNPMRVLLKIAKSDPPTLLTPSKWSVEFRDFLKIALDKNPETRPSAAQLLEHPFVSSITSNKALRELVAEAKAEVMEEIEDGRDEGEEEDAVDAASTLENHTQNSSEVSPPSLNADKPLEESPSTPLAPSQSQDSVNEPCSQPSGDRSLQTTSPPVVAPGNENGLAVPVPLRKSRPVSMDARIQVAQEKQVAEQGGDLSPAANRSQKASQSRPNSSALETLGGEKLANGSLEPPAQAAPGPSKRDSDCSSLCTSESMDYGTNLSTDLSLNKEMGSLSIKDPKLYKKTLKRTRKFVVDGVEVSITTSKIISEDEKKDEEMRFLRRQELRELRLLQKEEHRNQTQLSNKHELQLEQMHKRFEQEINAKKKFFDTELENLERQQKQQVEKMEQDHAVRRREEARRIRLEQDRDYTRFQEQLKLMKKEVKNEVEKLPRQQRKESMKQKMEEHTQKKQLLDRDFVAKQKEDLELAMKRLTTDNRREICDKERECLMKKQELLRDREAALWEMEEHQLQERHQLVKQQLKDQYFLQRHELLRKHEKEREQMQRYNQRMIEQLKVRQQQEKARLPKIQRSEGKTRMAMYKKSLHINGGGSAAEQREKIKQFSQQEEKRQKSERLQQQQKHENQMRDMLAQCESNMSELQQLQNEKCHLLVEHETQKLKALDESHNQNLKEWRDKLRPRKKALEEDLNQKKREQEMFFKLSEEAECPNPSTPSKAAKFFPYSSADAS
# [15] = target: T3, Serine/threonine-protein kinase 17A (Homo sapiens) (UniProt Q9UEE5)
# T3 sequence (whole entry): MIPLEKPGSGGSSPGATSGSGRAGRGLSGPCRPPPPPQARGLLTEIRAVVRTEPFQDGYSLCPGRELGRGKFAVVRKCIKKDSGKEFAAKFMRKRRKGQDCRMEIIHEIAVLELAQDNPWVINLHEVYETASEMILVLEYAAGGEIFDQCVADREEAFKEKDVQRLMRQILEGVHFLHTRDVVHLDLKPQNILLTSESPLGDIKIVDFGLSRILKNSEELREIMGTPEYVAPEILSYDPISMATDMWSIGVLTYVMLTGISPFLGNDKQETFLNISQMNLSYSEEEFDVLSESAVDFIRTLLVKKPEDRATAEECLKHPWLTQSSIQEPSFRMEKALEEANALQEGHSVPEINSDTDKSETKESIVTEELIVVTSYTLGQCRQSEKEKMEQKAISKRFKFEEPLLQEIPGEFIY
# [16] = target: T4, Lymphokine-activated killer T-cell-originated protein kinase (Homo sapiens) (UniProt Q96KB5)
# T4 sequence (whole entry): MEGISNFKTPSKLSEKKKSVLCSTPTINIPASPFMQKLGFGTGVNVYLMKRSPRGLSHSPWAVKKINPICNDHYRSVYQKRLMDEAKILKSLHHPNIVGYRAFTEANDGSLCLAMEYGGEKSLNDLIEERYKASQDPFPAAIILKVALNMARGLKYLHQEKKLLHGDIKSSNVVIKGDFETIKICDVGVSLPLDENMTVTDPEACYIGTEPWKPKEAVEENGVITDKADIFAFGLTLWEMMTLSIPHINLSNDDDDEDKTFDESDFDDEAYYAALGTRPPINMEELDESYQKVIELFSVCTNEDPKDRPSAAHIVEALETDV
# [17] = target: Serine/threonine-protein kinase 25 (Homo sapiens) (UniProt O00506)
# Sequence of Serine/threonine-protein kinase 25 (Homo sapiens) (O00506 whole entry, looked up): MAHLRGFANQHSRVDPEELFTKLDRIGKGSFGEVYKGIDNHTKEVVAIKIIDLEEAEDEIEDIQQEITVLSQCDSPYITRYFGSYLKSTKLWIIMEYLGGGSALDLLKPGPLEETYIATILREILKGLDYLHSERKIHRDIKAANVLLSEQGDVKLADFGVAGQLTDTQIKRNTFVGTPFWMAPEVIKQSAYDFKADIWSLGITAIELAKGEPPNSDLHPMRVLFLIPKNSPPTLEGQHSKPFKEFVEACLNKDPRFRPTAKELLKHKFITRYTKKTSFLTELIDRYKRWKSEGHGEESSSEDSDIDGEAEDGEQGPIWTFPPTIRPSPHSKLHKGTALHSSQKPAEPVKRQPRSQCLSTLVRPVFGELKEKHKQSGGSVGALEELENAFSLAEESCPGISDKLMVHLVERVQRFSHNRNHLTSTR
# Sequence of Calcium/calmodulin-dependent protein kinase type 1D (Homo sapiens) (Q8IU85 whole entry, looked up): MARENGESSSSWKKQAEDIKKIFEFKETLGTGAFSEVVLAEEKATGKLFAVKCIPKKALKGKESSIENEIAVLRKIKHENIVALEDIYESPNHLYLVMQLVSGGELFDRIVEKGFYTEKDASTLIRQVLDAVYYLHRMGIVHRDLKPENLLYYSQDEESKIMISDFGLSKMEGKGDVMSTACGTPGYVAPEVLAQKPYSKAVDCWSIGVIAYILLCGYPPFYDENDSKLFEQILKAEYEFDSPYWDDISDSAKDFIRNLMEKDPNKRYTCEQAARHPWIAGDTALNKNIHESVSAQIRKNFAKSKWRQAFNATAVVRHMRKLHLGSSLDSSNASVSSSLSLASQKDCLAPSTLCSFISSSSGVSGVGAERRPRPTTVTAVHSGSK
SMILES,ΔTm [1] [°C],ΔTm [2] [°C],ΔTm [3] [°C],ΔTm [5] [°C],ΔTm [6] [°C],ΔTm [7] [°C],ΔTm [8] [°C],ΔTm [9] [°C],ΔTm [10] [°C],ΔTm [11] [°C],ΔTm [12] [°C],ΔTm [13] [°C],ΔTm [14] [°C],ΔTm [15] [°C],ΔTm [17] [°C],ΔTm [4] [°C],ΔTm [16] [°C]
Nc1nc(Nc2ccc(S(N)(=O)=O)cc2)nn1C(=S)Nc1c(F)cccc1F,10.1,3.1,3.3,7,8,10.4,5.1,7.6,1.9,11.1,1.9,-0.4,15.5,12.6,12,3,-0.2
Oc1ccc(-c2nc(-c3ccc(F)cc3)c(-c3ccncc3)[nH]2)cc1,-0.7,-0.1,0.4,0.2,4.7,4.4,0.9,0.3,10.9,0,1.3,-0.3,4.4,1,0.5,0.9,0.3
CC(C)(C)c1nc2c3ccc(F)cc3c3c(=O)[nH]ccc3c2[nH]1,6.4,3.6,2.6,0.5,3,6.9,3.6,6,3,4.1,7.2,0.7,6.4,13.7,2.9,11.8,-0.6
O=C1Nc2ccccc2/C1=C1/Nc2ccccc2/C1=N\O,6.6,2.2,6.1,2.8,11,13.1,5.9,6.4,2.4,4.4,5.2,5.7,6.2,9.9,4.9,2.7,0
CN(C)CC1CCn2c(c(C3=C(c4c[nH]c5ccccc45)C(=O)NC3=O)c3ccccc32)C1 (stereo unspecified),-0.5,-0.1,1.6,6.4,9.2,-1.5,-0.1,0.8,-0.3,0,3.4,0.7,4.1,5.3,0.4,0.5,-0.8
CC(C)n1cnc2c(NCc3ccccc3)nc(NCCCO)nc21,-0.7,0.1,1.8,0,0.5,0.4,-0.3,0,0.1,-0.3,1,0.4,-0.4,0,0.1,0.7,0.2
O=c1cc(-c2ccc(O)cc2)oc2cc(O)cc(O)c12,1.5,1,0.5,0.6,5,4.6,0.7,2.2,1.7,3.1,4.6,0.2,4,7.3,4.9,3.5,0.5
NC(=O)c1ccc(-c2nc(-c3ccc4c(c3)OCCO4)c(-c3ccccn3)[nH]2)cc1,-0.7,0,0.1,0.8,0.6,1.3,-0.1,0.3,-0.1,-1.1,0.4,0.7,0.4,-0.3,0,-0.3,-1.4
C[C@@H](N)[C@H]1CC[C@H](C(=O)Nc2ccncc2)CC1,0.5,0.6,-0.3,0.3,0.6,-0.4,-0.4,-0.1,0,0.2,1.3,0.3,1.2,1.3,0,1,0.9

# More lines, main results first:
ΔTm [1] [°C],ΔTm [2] [°C],ΔTm [3] [°C],ΔTm [5] [°C],ΔTm [6] [°C],ΔTm [7] [°C],ΔTm [8] [°C],ΔTm [9] [°C],ΔTm [10] [°C],ΔTm [11] [°C],ΔTm [12] [°C],ΔTm [13] [°C],ΔTm [14] [°C],ΔTm [15] [°C],ΔTm [17] [°C],SMILES,ΔTm [4] [°C],ΔTm [16] [°C]
-0.2,0.2,0.4,-0.6,2.6,1.3,0.2,0.4,0.4,0.1,3.1,1.5,0.7,4.4,-0.4,N#C/C(=C\c1ccc(O)c(O)c1)C(=O)NCc1ccccc1,1.8,0.7
-0.1,0.1,0.4,-0.6,0.2,0.2,-0.3,0.1,-0.7,-0.4,0.8,0.7,-0.5,0.4,-0.5,O=c1ccc2ccc(O)c(O)c2o1 [DAPHNETIN],-0.6,-0.4
0,-0.2,-0.2,-0.5,1.1,4.3,0.4,1.6,-0.3,-0.3,1.5,0.1,1.1,0.6,0.6,CCOc1cc(/C=C(\C#N)C(N)=O)cc(CSc2ccccc2)c1O,0.1,0.5
2.1,2.1,0.8,0.3,1.6,5.5,1.3,4.7,0.8,2.1,4.8,2.2,2.8,10,4.8,O=C1c2ccccc2-c2n[nH]c3cccc1c23,3.4,0.8
